Here are results for 9 compounds from patent US9422263B2, “Fluoro-substituted 3,5-dicyano-4-(1H-indazol-5-yl)-2,6-dimethyl-1,4-dihydropyridine derivatives and methods of use thereof” (BAYER PHARMA AKTIENGESELLSCHAFT, priority 2009, dated 2016).

Molecules are shown by their SMILES. Like-named read-outs stand apart in the source and are kept apart here.

The nature of data set [1]: Caco-2 permeability assay. The data set is classed as in vitro ADME. The following applies: human, apical to basolateral, 2 h at 37° C. The text has this: Caco-2 Permeability Assay:
The in vitro permeation of a test compound across a Caco-2 cell monolayer is a well-established assay system to predict the permeability from the gastro-intestinal tract [cf. P. Artursson and J. Karlsson: Correlation between oral drug absorption in humans and apparent drug permeability coefficients in human intestinal epithelial (Caco-2) cells, Biochem. Biophys. 175 (3), 880-885 (1991)]. The permeability of the compounds of the present invention in such Caco-2 cells was determined as described below:
Human caco-2 cells (ACC No. 169, DSMZ, German Collection of Microorganisms and Cell Cultures, Braunschweig, Germany) are seeded on 24-well insert plates and are allowed to grow for 14-16 days. For permeability studies, the test compounds are dissolved in DMSO and diluted to the final test concentration of 2 μM with transport buffer [Hanks' Buffered Salt Solution, Gibco/Invitrogen, further supplemented with glucose (final concentration 19.9 mM) and HEPES (final concentration 9.8 mM)]. For determination of the apical to basolateral permeability (PappA-B), the test compound solution is added to the apical side of the cell monolayer and transport buffer to the basolateral side of the monolayer; for determination of the basolateral to apical permeability (PappB-A), the test compound solution is added to the basolateral side of the cell monolayer and transport buffer to the apical side of the monolayer. Samples are taken from the donor compartment at the beginning of the experiment to confirm mass balance. After an incubation of 2 h at 37° C., samples are taken from both compartments. Samples are analyzed by LC-MS/MS, and the apparent permeability coefficients are calculated. Lucifer Yellow permeability is assayed for each cell monolayer to ensure cell monolayer integrity, and the permeability of Atenolol (low permeability marker) and Sulfasalazine (marker for active excretion) is determined for each batch as quality control.
(Passage across Caco-2 layers is used to estimate intestinal permeability.)

The nature of data set [2]: Pharmacokinetics after intravenous administration of test compounds. The data set is classed as in vivo, rat. The following applies: for in vivo PK, rat i.v. CLblood: male Wistar rats, total blood clearance; for in vivo PK, rat i.v. Fmax, calc: Fmax,calc=[1−CLblood/Qh]*100, Qh 4.2 L per h per kg. On the procedure: Pharmacokinetics after Intravenous Administration of Test Compounds: Male Wistar rats (Harlan Laboratories) are anesthetized and a catheter is inserted into the jugular vein of the rat. The next day, a defined dose of the test compound is administered as solution by injection into the tail vein. Blood samples are collected through the jugular catheter during the next 24 h (8-11 time points). Blood is centrifuged in heparin-tubes, and each plasma sample is treated with acetonitrile for protein precipitation. After centrifugation, the test compound in the supernatant is quantified using an LC-MS/MS method. The determined plasma concentrations are used for the calculation of pharmacokinetic parameters, such as AUC (area under the plasma concentration vs. time curve), Vss (volume of distribution under steady-state conditions), Cmax (highest test compound concentration observed in plasma following administration), t1/2 (half-life) and CL (total clearance of the test compound from the plasma). For the calculation of the blood clearance, the blood to plasma partitioning is determined by incubation of the test compound in blood of rats. After separation of the plasma by centrifugation, the concentration in the plasma is determined by an LC-MS/MS method. Under the assumption that the test compound is completely absorbed, the theoretically maximum achievable bioavailability Fmax,calc is calculated by the equation Fmax,calc=[1−CLblood/Qh]*100, wherein CLblood is the total blood clearance and Qh is the hepatic blood flow in rat of 4.2 L per h per kg.

Data set [3] can be described thus: Pharmacokinetics after peroral administration of test compounds. The class given is in vivo, rat. The following applies: for in vivo PK, rat p.o. F / in vivo PK, rat p.o. AUCnorm: male Wistar rats; for in vivo PK, rat p.o. F: bioavailability; for in vivo PK, rat p.o. AUCnorm: dose and body weight-normalized AUC; for Fraction absorbed fabs, calc: rat p.o., fabs,calc=[F/Fmax,calc]*100. The method, then:
Pharmacokinetics after Peroral Administration of Test Compounds: Male Wistar rats (Harlan Laboratories) are anesthetized and a catheter is inserted into the jugular vein of the rat. The next day, a defined dose of the test compound is administered perorally. Blood samples are collected through the jugular catheter during the next 24 h (8-11 time points). Blood is centrifuged in heparin-tubes, and each plasma sample is treated with acetonitrile for protein precipitation. After centrifugation, the test compound in the supernatant is quantified using an LC-MS/MS method. The determined plasma concentrations are used for the determination of pharmacokinetic parameters, such as AUC (area under the plasma concentration vs. time curve), Cmax (highest test compound concentration observed in plasma following administration), t1/2 (half-life) and F (bioavailability). The fraction of the dose absorbed (fabs,calc) is calculated by the equation fabs,calc=[F/Fmax,calc]*100, wherein F is the determined bioavailability after peroral administration and Fmax,calc is the theoretically maximum achievable bioavailability considering the determined blood clearance and assuming that the test compound is completely absorbed.

The mark [4] stands for this setting: Table 4, read-out: Caco-2 permeability PappA-B.
[5] abbreviates: Table 3, read-out: Caco-2 permeability PappA-B.

In the case of `CC1=C(C#N)C(c2ccc3[nH]nc(C)c3c2)C(C#N)=C(C(F)(F)F)N1C` (racemic) [Example 42, rac-1,2-Dimethyl-4-(3-methyl-1H-indazol-5-yl)-6-(trifluoromethyl)-1,4-dihydropyridine-3,5-dicarbonitrile], the Papp at 2 h, 2 μM in data set [1] (setting [4]) came out at 38.8 ×10⁻⁶ cm/s.
Take `CC1=C(C#N)C(c2cc3c(C)n[nH]c3cc2F)C(C#N)=C(C(F)(F)F)N1` (single isomer, unassigned) [Example 12, 4-(6-Fluoro-3-methyl-1H-indazol-5-yl)-2-methyl-6-(trifluoromethyl)-1,4-dihydropyridine-3,5-dicarbonitrile]: in data set [2], the “in vivo PK, rat i.v. CLblood” value is 13.2 mL/min/kg and the “in vivo PK, rat i.v. Fmax, calc” value is given as 81%. Also, the Papp at 2 h, 2 μM in data set [1] (setting [5]) turned out to be 18.7 ×10⁻⁶ cm/s. For the same compound, in data set [3], the “in vivo PK, rat p.o. F” value is given as 48%; the “in vivo PK, rat p.o. AUCnorm” value came to 1.1 kg·h/L; the “Fraction absorbed fabs, calc” value is listed as 59%.
On to `N#CC1=C(C(F)F)NC(C(F)F)=C(C#N)C1c1cc2cn[nH]c2cc1F` [Example 15, 2,6-Bis(difluoromethyl)-4-(6-fluoro-1H-indazol-5-yl)-1,4-dihydropyridine-3,5-dicarbonitrile], for which, in data set [2], the “in vivo PK, rat i.v. CLblood” value came out at 3.83 mL/min/kg and the “in vivo PK, rat i.v. Fmax, calc” value is 95%. In addition, the Papp at 2 h, 2 μM in data set [1] (setting [5]) worked out at 16.9 ×10⁻⁶ cm/s. In data set [3], the “in vivo PK, rat p.o. F” value amounted to 63%; the “in vivo PK, rat p.o. AUCnorm” value turned out to be 3.87 kg·h/L; the “Fraction absorbed fabs, calc” value is recorded as 66%.
`Cc1n[nH]c2ccc(C3C(C#N)=C(C(F)F)NC(C(F)F)=C3C#N)cc12` [Example 13, 2,6-Bis(difluoromethyl)-4-(3-methyl-1H-indazol-5-yl)-1,4-dihydropyridine-3,5-dicarbonitrile]: in data set [2], the “in vivo PK, rat i.v. CLblood” value is 2.83 mL/min/kg and the “in vivo PK, rat i.v. Fmax, calc” value is given as 96%. Also, the Papp at 2 h, 2 μM in data set [1] (setting [5]) was determined as 39.3 ×10⁻⁶ cm/s. Besides, in data set [3], the “in vivo PK, rat p.o. F” value turned out to be 70%; the “in vivo PK, rat p.o. AUCnorm” value came to 6.16 kg·h/L; the “Fraction absorbed fabs, calc” value was 73%.
In the case of `CCc1n[nH]c2ccc(C3C(C#N)=C(C(F)F)NC(C(F)F)=C3C#N)cc12` [Example 25, 2,6-Bis(difluoromethyl)-4-(3-ethyl-1H-indazol-5-yl)-1,4-dihydropyridine-3,5-dicarbonitrile], the Papp at 2 h, 2 μM in data set [1] (setting [4]) was 29 ×10⁻⁶ cm/s.
On the same count and under the same terms, the figure for `CC1=C(C#N)C(c2cc3cn[nH]c3cc2F)C(C#N)=C(C(F)F)N1` (racemic) [Example 16, rac-2-(Difluoromethyl)-4-(6-fluoro-1H-indazol-5-yl)-6-methyl-1,4-dihydropyridine-3,5-dicarbonitrile] is 22.6 ×10⁻⁶ cm/s.
On to `CC1=C(C#N)C(c2cc3c(C)n[nH]c3cc2F)C(C#N)=C(C(F)F)N1` (racemic) [Example 7, rac-2-(Difluoromethyl)-4-(6-fluoro-3-methyl-1H-indazol-5-yl)-6-methyl-1,4-dihydropyridine-3,5-dicarbonitrile], for which, in data set [2], the “in vivo PK, rat i.v. CLblood” value is 26.7 mL/min/kg and the “in vivo PK, rat i.v. Fmax, calc” value is 62%. Further, the Papp at 2 h, 2 μM in data set [1] (setting [5]) came to 22 ×10⁻⁶ cm/s. Besides, in data set [3], the “in vivo PK, rat p.o. F” value is recorded as 68%; the “in vivo PK, rat p.o. AUCnorm” value came out at 0.69 kg·h/L; the “Fraction absorbed fabs, calc” value is 109%.
Turning to `Cc1n[nH]c2ccc(C3C(C#N)=C(C(F)(F)F)NC(C(F)(F)F)=C3C#N)cc12` [Example 26, 4-(3-Methyl-1H-indazol-5-yl)-2,6-bis(trifluoromethyl)-1,4-dihydropyridine-3,5-dicarbonitrile], the Papp at 2 h, 2 μM in data set [1] (setting [4]) is 34.8 ×10⁻⁶ cm/s.
Regarding `CC1=C(C#N)C(c2cc3cn[nH]c3cc2F)C(C#N)=C(C(F)(F)F)N1` (racemic) [Example 19, rac-4-(6-Fluoro-1H-indazol-5-yl)-2-methyl-6-(trifluoromethyl)-1,4-dihydropyridine-3,5-dicarbonitrile], in data set [2], the “in vivo PK, rat i.v. CLblood” value is 36.5 mL/min/kg and the “in vivo PK, rat i.v. Fmax, calc” value is given as 48%. In addition, in data set [1] (setting [5]), the Papp at 2 h, 2 μM was determined as 17.6 ×10⁻⁶ cm/s. Further, in data set [3], the “in vivo PK, rat p.o. F” value is 40%; the “in vivo PK, rat p.o. AUCnorm” value is 0.33 kg·h/L; the “Fraction absorbed fabs, calc” value is 84%.
